3 compounds from patent publication US20070048385A1, “Microcapsules by coacervation containing a pharmaceutical incorporated in the coating polymer” (priority 2003, published 2007) can be followed below.

A short description of series [1]: Dissolution test at pH 6.8 according to USP 26. The class given is physicochemical. How it is done: A dissolution test is carried out on the microcapsules thus obtained comparing them with anhydrous theophylline in crystalline form.
The dissolution test was performed according to USP 26.
A dissolution test is carried out on the microcapsules obtained in Examples 5 and 6 according to the method previously described for Example 4
Dissolution test was performed according to USP 26
A dissolution test is carried out on the microcapsules thus obtained compared to fluoxetine raw material.

Series [2] can be described thus: Dissolution test at pH 1.2 according to USP 26. In kind it is physicochemical. To be noted: caffeine. On the procedure: The microcapsules obtained, when analysed with an electronic microscope (FIG. 3), show a distribution of the particles of the active principle within the polymeric membrane in the form of solid particles that are prevalently disposed at the interface between the polymer and the core. […] Dissolution test was performed according to USP 26.

Take `Cn1c(=O)c2[nH]cnc2n(C)c1=O` [Anhydrous Theophylline]: the “Dissolution % at pH 6.8, 5 min” value in series [1] (theophylline) is recorded as 65%. The “Dissolution % at pH 6.8, 10 min” value in series [1] (theophylline, T2 second head) is given as 100%. Further, the “Dissolution % at pH 6.8, 15 min” value in series [1] (15 min, theophylline) is given as 100%.

As for `Cn1c(=O)c2c(ncn2C)n(C)c1=O` [Caffeine], in series [2], the “Dissolution % at pH 1.2, 60 min” value was found to be 100%.

Consider `CNCCC(Oc1ccc(C(F)(F)F)cc1)c1ccccc1` (stereo not shown) [Fluoxetine], for which, in series [1] (fluoxetine), the “Dissolution % at pH 6.8, 5 min” value turned out to be 55% and the “Dissolution % at pH 6.8, 10 min” value was 75%. Further, the “Dissolution % at pH 6.8, 20 min” value in series [1] (20 min, fluoxetine) is listed as 100%.
